Assay results taken from ChEMBL document CHEMBL1201862, “PubChem BioAssay data set” (2004).
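Method: 48-hour compound exposure of cells in 96-well plates, five concentrations, linear interpolation of endpoints. At the GI50, growth is halved.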 Activity calls are given as the source filed them. Cut-off read from the data, not from the text of the source: active = GI50 up to about 1.1 µM and inactive = higher.

Assays:
Test in all cases: growth of human tumour cells (NCI), 48 h
UACC-257 = test system: UACC-257
TK-10 = test system: TK-10
SK-MEL-5 = test system: SK-MEL-5
A498 = test system: A498
MCF7 = test system: MCF7
NCI-H522 = test system: NCI-H522
NCI-H23 = test system: NCI-H23
PC-3 = test system: PC-3
SN12C = test system: SN12C
SNB-75 = test system: SNB-75
A549 = test system: A549
NCI-H460 = test system: NCI-H460
MOLT-4 = test system: MOLT-4
786-0 = test system: 786-0
NCI-H226 = test system: NCI-H226
OVCAR-3 = test system: OVCAR-3
SK-MEL-28 = test system: SK-MEL-28
HT-29 = test system: HT-29
IGROV-1 = test system: IGROV-1

SMILES | GI50 (UACC-257) | GI50 (TK-10) | GI50 (SK-MEL-5) | GI50 (A498) | GI50 (MCF7) | GI50 (NCI-H522) | GI50 (NCI-H23) | GI50 (PC-3) | GI50 (SN12C) | GI50 (SNB-75) | GI50 (A549) | GI50 (NCI-H460) | GI50 (MOLT-4) | GI50 (786-0) | GI50 (NCI-H226) | GI50 (OVCAR-3) | GI50 (SK-MEL-28) | GI50 (HT-29) | GI50 (IGROV-1)
CCCCc1ccc(Nc2nc(Cl)c3ccn(C4CC(Oc5ccc(C)cc5)C(COc5ccc(C)cc5)O4)c3n2)cc1 (stereo not given) | 25.9 µM (inactive) | 30.3 µM (inactive) | > 46.5 µM (inactive) | > 46.5 µM (inactive) | > 46.5 µM (inactive) | 22.4 µM (inactive) | 24.8 µM (inactive) | > 100 µM (inactive) | > 46.5 µM (inactive) | > 83.2 µM (inactive) | > 46.5 µM (inactive) | > 31.6 µM (inactive) | > 46.5 µM (inactive) | > 46.5 µM (inactive) | > 46.5 µM (inactive) | > 100 µM (inactive) | > 100 µM (inactive) | > 46.5 µM (inactive) | 22.9 µM (inactive)
c1ccc2sc(C3(N4CCCCC4)CCCCCC3)cc2c1 | 18.8 µM (inactive) | 25.1 µM (inactive) | 16.6 µM (inactive) | 15.2 µM (inactive) | 17.8 µM (inactive) | 17.5 µM (inactive) | 20.5 µM (inactive) | 15.5 µM (inactive) | 20.4 µM (inactive) | 15.2 µM (inactive) | 30 µM (inactive) | 17.1 µM (inactive) | 15.2 µM (inactive) | 20.9 µM (inactive) | 17.3 µM (inactive) | 19.4 µM (inactive) | 4.62 µM (inactive) | 14.8 µM (inactive) | 23.4 µM (inactive)
COc1ccccc1-n1c(=O)n(C)c(=O)n1C(C)(C)C | > 100 µM (inactive) | > 100 µM (inactive) | > 100 µM (inactive) | > 100 µM (inactive) | > 100 µM (inactive) | 29.3 µM (inactive) | > 100 µM (inactive) | > 100 µM (inactive) | > 100 µM (inactive) | > 100 µM (inactive) | > 100 µM (inactive) | > 100 µM (inactive) | > 100 µM (inactive) | > 100 µM (inactive) | > 100 µM (inactive) | > 100 µM (inactive) | > 100 µM (inactive) | > 100 µM (inactive) | –
CN(C)CCNC(=O)c1ccc(NCCCN(C)CCCNc2ccc(C(=O)NCCN(C)C)c3nc4ccccc4c(O)c23)c2c(O)c3ccccc3nc12 | 0.185 µM (active) | 0.16 µM (active) | 0.158 µM (active) | 0.13 µM (active) | < 0.01 µM (active) | < 0.01 µM (active) | < 0.0122 µM (active) | < 0.01 µM (active) | < 0.01 µM (active) | < 0.01 µM (active) | < 0.01 µM (active) | < 0.01 µM (active) | < 0.01 µM (active) | < 0.01 µM (active) | < 0.0317 µM (active) | 0.0228 µM (active) | 0.161 µM (active) | < 0.01 µM (active) | < 0.01 µM (active)
COc1ccc(N2C(=O)C3c4[nH]c5ccccc5c4C4c5ccccc5CC4C3C2=O)cc1 (stereo not given) | > 100 µM (inactive) | > 100 µM (inactive) | – | > 100 µM (inactive) | > 100 µM (inactive) | > 100 µM (inactive) | > 100 µM (inactive) | > 100 µM (inactive) | > 100 µM (inactive) | > 100 µM (inactive) | > 100 µM (inactive) | > 100 µM (inactive) | > 100 µM (inactive) | > 100 µM (inactive) | > 100 µM (inactive) | > 100 µM (inactive) | > 100 µM (inactive) | > 100 µM (inactive) | > 100 µM (inactive)
COc1ccc(C(=O)c2[nH]c(Nc3cc(C)ccn3)c(C(=S)Nc3ccccc3)c2N)cc1 | 15.9 µM (inactive) | 20 µM (inactive) | – | 15.9 µM (inactive) | 20.4 µM (inactive) | 13.8 µM (inactive) | 21.9 µM (inactive) | 21.2 µM (inactive) | 18.2 µM (inactive) | 20.5 µM (inactive) | 23.4 µM (inactive) | 6.04 µM (inactive) | 23.4 µM (inactive) | 21 µM (inactive) | 17.1 µM (inactive) | 41.6 µM (inactive) | 17 µM (inactive) | 17.5 µM (inactive) | 12.2 µM (inactive)
COC(=O)c1ccc(Cc2cc(Cc3ccc(C(=O)OC)cc3)cc(Cc3ccc(C(=O)OC)cc3)c2)cc1 | > 25 µM (inactive) | > 25 µM (inactive) | – | > 25 µM (inactive) | > 25 µM (inactive) | > 25 µM (inactive) | – | > 25 µM (inactive) | > 25 µM (inactive) | > 25 µM (inactive) | > 25 µM (inactive) | > 25 µM (inactive) | > 25 µM (inactive) | > 25 µM (inactive) | > 25 µM (inactive) | > 25 µM (inactive) | > 25 µM (inactive) | > 25 µM (inactive) | > 25 µM (inactive)
C=C(C)C(=O)O[C@H]1C[C@@]23O[C@@H]2CCC(=C[C@H]2OC(=O)C(=C)[C@H]12)COC3O (stereo not given in full) | > 100 µM (inactive) | > 100 µM (inactive) | > 100 µM (inactive) | > 100 µM (inactive) | 30.6 µM (inactive) | 14.4 µM (inactive) | > 100 µM (inactive) | > 100 µM (inactive) | 49 µM (inactive) | > 100 µM (inactive) | > 100 µM (inactive) | > 100 µM (inactive) | 28.7 µM (inactive) | 35.3 µM (inactive) | > 100 µM (inactive) | 49.5 µM (inactive) | – | 57.5 µM (inactive) | > 100 µM (inactive)
CC(=O)O[C@H]1C(=O)[C@@]2(C)[C@H]([C@H](OC(=O)c3ccco3)[C@]3(O)C[C@H](OC(=O)[C@H](O)[C@@H](NC(=O)c4ccccc4)c4ccccc4)C(C)=C1C3(C)C)[C@]1(OC(C)=O)CO[C@@H]1C[C@@H]2O | 0.42 µM (active) | 8.41 µM (inactive) | 0.116 µM (active) | 3.81 µM (inactive) | 0.034 µM (active) | 0.309 µM (active) | 0.412 µM (active) | 0.12 µM (active) | 0.308 µM (active) | 0.134 µM (active) | 0.518 µM (active) | 0.164 µM (active) | 0.114 µM (active) | 1.16 µM (inactive) | 0.429 µM (active) | 0.0612 µM (active) | – | 0.0393 µM (active) | 0.251 µM (active)
CC(Oc1ccccc1Cl)C(=O)NN1C(=O)CSC1c1ccc(Cl)cc1 (stereo not given) | 23.6 µM (inactive) | 25.8 µM (inactive) | 17.6 µM (inactive) | 19.8 µM (inactive) | 18.1 µM (inactive) | 16 µM (inactive) | 19.3 µM (inactive) | 18.9 µM (inactive) | 14.8 µM (inactive) | 22.9 µM (inactive) | 18.5 µM (inactive) | 25.4 µM (inactive) | – | 15.2 µM (inactive) | 18.2 µM (inactive) | 23.3 µM (inactive) | 23 µM (inactive) | 19.8 µM (inactive) | 20.7 µM (inactive)
N#Cc1[nH]c(=S)[nH]c1N | > 100 µM (inactive) | > 100 µM (inactive) | > 100 µM (inactive) | > 100 µM (inactive) | > 100 µM (inactive) | > 100 µM (inactive) | > 100 µM (inactive) | > 100 µM (inactive) | > 100 µM (inactive) | > 100 µM (inactive) | > 100 µM (inactive) | > 100 µM (inactive) | – | > 100 µM (inactive) | > 100 µM (inactive) | > 100 µM (inactive) | > 100 µM (inactive) | > 100 µM (inactive) | > 100 µM (inactive)
